This is an account of results in patent US7271168B2, “Piperazine derivatives having SST1 antagonistic activity” (Novartis AG, priority 2001, dated 2007).

The target of experiment [1] is somatostatin receptors (sst1) (Mus musculus, UniProt P30873). Kind of experiment: somatostatin receptor affinity (pKd), mouse. It is filed as binding. From the text:
(§1) The following pKd values have been found:

Experiment [2] deals with somatostatin receptors (sst1) (Rattus norvegicus, UniProt P28646). Briefly: somatostatin receptor affinity (pKd), rat. It is filed as binding.
Chain of somatostatin receptors (sst1) (Rattus norvegicus, UniProt P28646) (P28646 whole entry): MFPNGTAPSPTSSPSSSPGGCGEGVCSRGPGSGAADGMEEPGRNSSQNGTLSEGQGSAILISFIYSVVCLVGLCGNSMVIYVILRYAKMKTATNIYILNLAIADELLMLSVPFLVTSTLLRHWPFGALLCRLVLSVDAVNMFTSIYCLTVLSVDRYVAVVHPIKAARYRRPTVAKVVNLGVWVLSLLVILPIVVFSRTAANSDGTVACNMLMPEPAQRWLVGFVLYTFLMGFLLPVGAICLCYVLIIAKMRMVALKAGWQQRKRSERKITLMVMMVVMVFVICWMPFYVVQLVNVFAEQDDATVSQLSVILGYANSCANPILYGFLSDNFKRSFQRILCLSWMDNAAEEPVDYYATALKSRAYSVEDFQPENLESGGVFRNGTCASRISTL
Text: as §1

The target in experiment [3] is T1, Somatostatin sst1 receptors (Homo sapiens, UniProt P30872). Briefly: somatostatin receptor affinity (pKd), human. It is filed as binding.
T1 sequence (P30872 whole entry): as the sequence (P28646 whole entry) above, with P8S, T11S, S16P, G20S, V25G, C26G, S32A, S45A, A385T, S389T counted along it
Text: as §1

For a further experiment, the system named is mice. Briefly: social recognition test. It is filed as in vivo. Particulars: social recognition test in mice. On the procedure: Moreover when given at doses of about 0.03 to 3 mg/kg p.o. to rodents, the agents of the invention counteract electroshock-induced amnesia, increase retention performance in a passive avoidance paradigm (Mondadori et. al., Pharmacology Communications 1992, 2: 93-97) and improve social recognition (Mondadori et al., Behavioural Brain Research 1996, 77: 227-229). The compounds are therefore indicated for the treatment of cognitive disturbances and learning/memory disorders.

The subject of a further experiment is intruder rat. Briefly: intruder test (intruder rat towards resident rat). The class given is in vivo.
Experiment [4] concerns the target T1, Somatostatin sst1 receptors.

Read-outs that look alike come from different tables or passages of the source.

Chain of somatostatin receptors (sst1) (Mus musculus, UniProt P30873) (P30873 whole entry): as the sequence (P28646 whole entry) above, with P8S, T11S, S16P, G20S, V25A, S45A counted along it

For the compound `CN(CCC(=O)N1CCN(c2ccc(F)c(F)c2)CC1)CCC1c2ccccc2Oc2ccccc21` [Compound A, 1-[4-(3,4-difluoro-phenyl)-piperazin-1-yl]-3-{methyl-[2-(9H-xanthen-9-yl)-ethyl]-amino}-propan-1-one], the Kd in experiment [1] was 3.98 to 10 nM; in experiment [2], 0.794 nM; in experiment [3], 1.58 to 5.01 nM. In addition, the learning/memory performance result in the experiment on mice is listed as “specific enhancing effect”. For the same compound, the “duration of social contacts of the intruder rat towards the resident rat” value in the experiment with intruder rat is listed as “significantly increase”.

Turning to `CN(CCC(=O)N1CCN(c2ccc(F)c(F)c2)CC1)CCC1c2ccccc2-c2ccccc21` [Compound B, 1-[4-(3,4-difluoro-phenyl)-piperazin-1-yl]-3-{[2-(9H-fluoren-9-yl)-ethyl]-methyl-amino}-propan-1-one], the Kd in experiment [1] was 2.51 to 5.01 nM; in experiment [2] (rat, read-out: pKd (converted)), 0.501 nM; in experiment [3], 2.51 to 6.31 nM. For the same compound, the “selectivity among somatostatin receptors” value in experiment [4] is “sst1 selective”. The learning/memory performance entry with mice is given as “specific enhancing effect”. Besides, in the experiment on intruder rat, the “duration of social contacts of the intruder rat towards the resident rat” value is “significantly increase”.
